This is an account of results in ChEMBL document CHEMBL1126344, “Substituted penta- and hexapeptides as potent inhibitors of herpes simplex virus type 2 ribonucleotide reductase” (Bioorg Med Chem Lett, 1992).

The term IC50 denotes the concentration at which inhibition is half-maximal. Higher therefore signals a need for much substance.

Test [1] is described as follows: Inhibitory activity of YAGAVVNDL against Herpes Simplex Virus type 2 (HSV-2) ribonucleotide reductase determined as control. Also on record: species or system Human alphaherpesvirus 2.
Test [2] is described as follows: The compound was tested in vitro for inhibitory activity against Herpes Simplex Virus type 2 ribonucleotide reductase. More on the design: species or system Human alphaherpesvirus 2.
Test [3] concerns Human alphaherpesvirus 2. The test can be described thus: Relative potency to that of YAGAVVNDL against Herpes Simplex Virus type 2 ribonucleotide reductase.

Non-standard residues stand in square brackets, D forms with d. Residues, ends and D or L forms follow the SMILES beside them. *: point of attachment. Dibenzylacetyl = O=C(C(Cc1ccccc1)Cc1ccccc1)*; NMeY = CN[C@@H](Cc1ccc(O)cc1)C(=O)O; tBuAla = CC(C)(C)C[C@H](N)C(=O)O; NBn2 = c1ccc(CN(Cc2ccccc2)*)cc1; AllylGly = C=CC[C@H](N)C(=O)O; Morpholide = C1CN(*)CCO1; Pyrrolidide = C1CCN(*)C1; NHBn = c1ccc(CN*)cc1

In the case of `CC(C)C[C@H](NC(=O)[C@H](CC(=O)O)NC(=O)[C@H](CC(N)=O)NC(=O)[C@@H](NC(=O)[C@@H](NC(=O)CC(c1ccccc1)c1ccccc1)C(C)C)C(C)C)C(=O)O`, the IC50 in test [1] is 60 µM; in test [2] it was 10000 nM. In test [3], this compound registered a Relative potency of 6.
With `CC(C)C[C@H](NC(=O)[C@H](CC(=O)O)NC(=O)[C@H](CC(N)=O)NC(=O)[C@@H](NC(=O)[C@@H](NC(=O)C(C)C)C(C)C)C(C)C)C(=O)O`, the IC50 in test [1] is 5 µM; in test [2], 30000 nM. Moreover, the Relative potency in test [3] was determined as 0.17.
Consider `CC(C)C[C@H](NC(=O)[C@H](CC(=O)O)NC(=O)[C@H](CC(N)=O)NC(=O)[C@@H](NC(=O)[C@@H](NC(=O)C(Cc1ccccc1)Cc1ccccc1)C(C)C)C(C)C)C(=O)O`, for which the IC50 is 19 µM in test [1] and 500 nM in test [2]. Also, the Relative potency in test [3] stood at 38.
For `CC(C)C[C@H](NC(=O)[C@H](CC(=O)O)NC(=O)[C@H](CC(N)=O)NC(=O)[C@@H](NC(=O)[C@@H](NC(=O)CCc1ccccc1)C(C)C)C(C)C)C(=O)O`, in that order: 17 µM, 11000 nM and 1.5.
For `CC(C)C[C@H](NC(=O)[C@H](CC(=O)O)NC(=O)[C@H](CC(N)=O)NC(=O)[C@@H](NC(=O)[C@@H](NC(=O)N(Cc1ccccc1)Cc1ccccc1)C(C)C)C(C)C)C(=O)O`, in that order: 24 µM, 11000 nM and 2.2.
Turning to `CC(C)C[C@H](NC(=O)[C@H](CC(=O)O)NC(=O)[C@H](CC(N)=O)NC(=O)[C@@H](NC(=O)[C@@H](NC(=O)N(c1ccccc1)c1ccccc1)C(C)C)C(C)C)C(=O)O`, the figures for the IC50 in test [1] and in test [2] were 24 µM and 170000 nM, respectively. The Relative potency in test [3] was determined as 0.14.
For `CC(C)C[C@H](NC(=O)[C@H](CC(=O)O)NC(=O)[C@H](CC(N)=O)NC(=O)[C@@H](NC(=O)[C@@H](NC(=O)CCc1ccc(O)cc1)C(C)C)C(C)C)C(=O)O`, in that order: 20 µM, 21000 nM and 1.
For `CC(C)C[C@H](NC(=O)[C@H](CC(=O)O)NC(=O)[C@H](CC(N)=O)NC(=O)[C@@H](NC(=O)[C@@H](NC(=O)C(c1ccccc1)c1ccccc1)C(C)C)C(C)C)C(=O)O`, in that order: 24 µM, 90000 nM and 0.27.
`CC(C)C[C@H](NC(=O)[C@H](CC(=O)O)NC(=O)[C@H](CC(N)=O)NC(=O)[C@@H](NC(=O)[C@@H](NC(=O)C(Cc1ccc(O)cc1)Cc1ccc(O)cc1)C(C)C)C(C)C)C(=O)O`: the half-maximal inhibitory concentration (IC50) came to 35 µM in test [1] and 6500 nM in test [2]. Further, in test [3], the Relative potency was 5.4.
For `CC(C)C[C@H](NC(=O)[C@H](CC(=O)O)NC(=O)[C@H](CC(N)=O)NC(=O)[C@@H](NC(=O)[C@@H](NC(=O)C(C)(C)C)C(C)C)C(C)C)C(=O)O` the same measures were 5 µM, 21000 nM and 0.24.
Take `CC(C)C[C@H](NC(=O)[C@H](CC(=O)O)NC(=O)[C@H](CC(=O)NCc1ccccc1)NC(=O)[C@@H](NC(=O)[C@@H](NC(=O)C(Cc1ccccc1)Cc1ccccc1)C(C)C)C(C)C)C(=O)O` (Dibenzylacetyl-VVD(NHBn)DL-OH): the IC50 in test [1] turned out to be 22 µM; in test [2], 400 nM. Further, the Relative potency in test [3] came out at 55.
`CC(C)[C@H](NC(=O)C(Cc1ccccc1)Cc1ccccc1)C(=O)N[C@H](C(=O)N[C@@H](CC(=O)NCc1ccccc1)C(=O)N[C@@H](CC(=O)O)C(=O)N[C@@H](CC(C)(C)C)C(=O)O)C(C)C` (Dibenzylacetyl-VVD(NHBn)D[tBuAla]-OH): the IC50 in test [1] came to 10 µM; in test [2], 200 nM. This compound displayed a Relative potency in test [3] of 50.
For `CC(C)[C@H](NC(=O)C(Cc1ccccc1)Cc1ccccc1)C(=O)N[C@H](C(=O)N[C@@H](CC(=O)N(C)C)C(=O)N[C@@H](CC(=O)O)C(=O)N[C@@H](CC(C)(C)C)C(=O)O)C(C)C` (Dibenzylacetyl-VVD(NMe2)D[tBuAla]-OH), in that order: 21 µM, 300 nM and 70.
For `CC(C)[C@H](NC(=O)C(Cc1ccccc1)Cc1ccccc1)C(=O)N[C@H](C(=O)N[C@@H](CC(N)=O)C(=O)N[C@@H](CC(=O)O)C(=O)N[C@@H](CC(C)(C)C)C(=O)O)C(C)C` (Dibenzylacetyl-VVND[tBuAla]-OH) the same measures were 12 µM, 100 nM and 120.
For `CC(C)C[C@H](NC(=O)[C@H](CC(=O)O)NC(=O)[C@H](CC(=O)N(C)C)NC(=O)[C@@H](NC(=O)[C@@H](NC(=O)[C@@H](N)CC(=O)O)C(C)C)C(C)C)C(=O)O` (H-DVVD(NMe2)DL-OH), in that order: 9.5 µM, 150 nM and 63.
On to `CC(C)C[C@H](NC(=O)[C@H](CC(=O)O)NC(=O)[C@H](CC(=O)N1CCCC1)NC(=O)[C@@H](NC(=O)[C@@H](NC(=O)[C@@H](N)CC(=O)O)C(C)C)C(C)C)C(=O)O` (H-DVVD(Pyrrolidide)DL-OH), for which the IC50 in test [1] is 32 µM; in test [2], 1000 nM. Also, the Relative potency in test [3] stood at 32.
For `COC(=O)C[C@H](NC(=O)[C@@H](NC(=O)[C@@H](NC(=O)[C@@H](N)Cc1ccccc1)C(C)C)C(C)C)C(=O)N[C@@H](CC(=O)O)C(=O)N[C@@H](CC(C)C)C(=O)O` (H-FVVD(OMe)DL-OH), in that order: 27 µM, 2000 nM and 14.
For `CC(C)C[C@H](NC(=O)[C@H](CC(=O)O)NC(=O)[C@H](CC(=O)N1CCOCC1)NC(=O)[C@@H](NC(=O)[C@@H](NC(=O)[C@@H](N)Cc1ccc(O)cc1)C(C)C)C(C)C)C(=O)O` (H-YVVD(Morpholide)DL-OH) the same measures were 22 µM, 600 nM and 36.
Take `CC(C)C[C@H](NC(=O)[C@H](CC(=O)O)NC(=O)[C@H](CC(=O)N(Cc1ccccc1)Cc1ccccc1)NC(=O)[C@@H](NC(=O)[C@@H](NC(=O)[C@@H](N)Cc1ccc(O)cc1)C(C)C)C(C)C)C(=O)O` (H-YVVD(NBn2)DL-OH): the IC50 in test [1] is 25 µM; in test [2] it was 2000 nM. The compound further had a Relative potency in test [3] of 13.
For `CC(C)C[C@H](NC(=O)[C@H](CC(=O)O)NC(=O)[C@H](CC(=O)NCc1ccccc1)NC(=O)[C@@H](NC(=O)[C@@H](NC(=O)[C@@H](N)Cc1ccc(O)cc1)C(C)C)C(C)C)C(=O)O` (H-YVVD(NHBn)DL-OH), in that order: 22 µM, 4000 nM and 5.5.
For `CNC(=O)C[C@H](NC(=O)[C@@H](NC(=O)[C@@H](NC(=O)[C@@H](N)Cc1ccc(O)cc1)C(C)C)C(C)C)C(=O)N[C@@H](CC(=O)O)C(=O)N[C@@H](CC(C)C)C(=O)O` (H-YVVD(NHMe)DL-OH), in that order: 21 µM, 2000 nM and 11.
For `CC(C)C[C@H](NC(=O)[C@H](CC(=O)O)NC(=O)[C@H](CC(=O)N(C)C)NC(=O)[C@@H](NC(=O)[C@@H](NC(=O)[C@@H](N)Cc1ccc(O)cc1)C(C)C)C(C)C)C(=O)O` (H-YVVD(NMe2)DL-OH) the same measures were 27 µM, 300 nM and 90.
Turning to `CC(C)[C@H](NC(=O)[C@@H](NC(=O)[C@@H](N)Cc1ccc(O)cc1)C(C)C)C(=O)N[C@@H](CC(=O)N(C)C)C(=O)N[C@@H](CC(=O)O)C(=O)N[C@@H](CC(C)(C)C)C(=O)O` (H-YVVD(NMe2)D[tBuAla]-OH), the IC50 in test [1] came to 22 µM; in test [2] it was 200 nM. For the same compound, the Relative potency in test [3] is 110.
Consider `C=CC[C@H](NC(=O)[C@H](CC(=O)O)NC(=O)[C@H](CC(N)=O)NC(=O)[C@@H](NC(=O)[C@@H](NC(=O)[C@@H](N)Cc1ccc(O)cc1)C(C)C)C(C)C)C(=O)O` (H-YVVND[AllylGly]-OH), for which the IC50 was 22 µM in test [1] and above 430000 nM in test [2].
Compound `CN[C@@H](Cc1ccc(O)cc1)C(=O)N[C@H](C(=O)N[C@H](C(=O)N[C@@H](CC(N)=O)C(=O)N[C@@H](CC(=O)O)C(=O)N[C@@H](CC(C)C)C(=O)O)C(C)C)C(C)C` (H-[NMeY]VVNDL-OH) gave an IC50 in test [1] of 15 µM.
On to `CC(C)C[C@H](NC(=O)[C@H](CC(=O)O)NC(=O)[C@H](CC(N)=O)NC(=O)[C@@H](NC(=O)[C@@H](NC(=O)[C@@](C)(N)Cc1ccc(O)cc1)C(C)C)C(C)C)C(=O)O` (stereo in doubt; form 1) [listing 1 of 2 here], for which the values for the IC50 in test [1] and in test [2] were 30 µM and 58000 nM, respectively.
For `CC(C)C[C@H](NC(=O)[C@H](CC(=O)O)NC(=O)[C@H](CC(N)=O)NC(=O)[C@@H](NC(=O)[C@@H](NC(=O)C(Cc1ccccc1)Cc1ccc(O)cc1)C(C)C)C(C)C)C(=O)O` (stereo in doubt; form 1), the Relative potency in test [3] came out at 21.
On the same count and under the same terms, next, `CC(C)C[C@H](NC(=O)[C@H](CC(=O)O)NC(=O)[C@H](CC(N)=O)NC(=O)[C@@H](NC(=O)[C@@H](NC(=O)[C@@](C)(N)Cc1ccc(O)cc1)C(C)C)C(C)C)C(=O)O` (stereo in doubt; form 1) [listing 2 of 2 here]: 0.52.
Regarding `CC(C)C[C@H](NC(=O)[C@H](CC(=O)O)NC(=O)[C@H](CC(N)=O)NC(=O)[C@@H](NC(=O)[C@@H](NC(=O)C(Cc1ccccc1)Cc1ccc(O)cc1)C(C)C)C(C)C)C(=O)O` (stereo in doubt; form 2) [listing 1 of 2 here], the IC50 is 9 µM in test [1] and 1500 nM in test [2].
In test [2], `CC(C)C[C@H](NC(=O)[C@H](CC(=O)O)NC(=O)[C@H](CC(N)=O)NC(=O)[C@@H](NC(=O)[C@@H](NC(=O)[C@@](C)(N)Cc1ccc(O)cc1)C(C)C)C(C)C)C(=O)O` (stereo in doubt; form 2) [listing 1 of 2 here] yielded an IC50 of 120000 nM.
For `CC(C)C[C@H](NC(=O)[C@H](CC(=O)O)NC(=O)[C@H](CC(N)=O)NC(=O)[C@@H](NC(=O)[C@@H](NC(=O)C(Cc1ccccc1)Cc1ccc(O)cc1)C(C)C)C(C)C)C(=O)O` (stereo in doubt; form 2) [listing 2 of 2 here], the Relative potency in test [3] is 6.
Regarding `CC(C)C[C@H](NC(=O)[C@H](CC(=O)O)NC(=O)[C@H](CC(N)=O)NC(=O)[C@@H](NC(=O)[C@@H](NC(=O)[C@@](C)(N)Cc1ccc(O)cc1)C(C)C)C(C)C)C(=O)O` (stereo in doubt; form 2) [listing 2 of 2 here], the Relative potency in test [3] was found to be 0.25.
